Each compound was assayed against T1, LRRK2 G2019S mutant kinase (Homo sapiens, UniProt Q5S007, G2019S) (assay: LRRK2 G2019S LanthaScreen TR-FRET kinase assay). Conditions: LRRK2 G2019S GST-tagged protein, 100 μM ATP, LRRKtide substrate; read-out: IC50 (potency).
T1 construct: GST; purchased Invitrogen PV4882
T1 sequence (Q5S007 whole entry G2019S): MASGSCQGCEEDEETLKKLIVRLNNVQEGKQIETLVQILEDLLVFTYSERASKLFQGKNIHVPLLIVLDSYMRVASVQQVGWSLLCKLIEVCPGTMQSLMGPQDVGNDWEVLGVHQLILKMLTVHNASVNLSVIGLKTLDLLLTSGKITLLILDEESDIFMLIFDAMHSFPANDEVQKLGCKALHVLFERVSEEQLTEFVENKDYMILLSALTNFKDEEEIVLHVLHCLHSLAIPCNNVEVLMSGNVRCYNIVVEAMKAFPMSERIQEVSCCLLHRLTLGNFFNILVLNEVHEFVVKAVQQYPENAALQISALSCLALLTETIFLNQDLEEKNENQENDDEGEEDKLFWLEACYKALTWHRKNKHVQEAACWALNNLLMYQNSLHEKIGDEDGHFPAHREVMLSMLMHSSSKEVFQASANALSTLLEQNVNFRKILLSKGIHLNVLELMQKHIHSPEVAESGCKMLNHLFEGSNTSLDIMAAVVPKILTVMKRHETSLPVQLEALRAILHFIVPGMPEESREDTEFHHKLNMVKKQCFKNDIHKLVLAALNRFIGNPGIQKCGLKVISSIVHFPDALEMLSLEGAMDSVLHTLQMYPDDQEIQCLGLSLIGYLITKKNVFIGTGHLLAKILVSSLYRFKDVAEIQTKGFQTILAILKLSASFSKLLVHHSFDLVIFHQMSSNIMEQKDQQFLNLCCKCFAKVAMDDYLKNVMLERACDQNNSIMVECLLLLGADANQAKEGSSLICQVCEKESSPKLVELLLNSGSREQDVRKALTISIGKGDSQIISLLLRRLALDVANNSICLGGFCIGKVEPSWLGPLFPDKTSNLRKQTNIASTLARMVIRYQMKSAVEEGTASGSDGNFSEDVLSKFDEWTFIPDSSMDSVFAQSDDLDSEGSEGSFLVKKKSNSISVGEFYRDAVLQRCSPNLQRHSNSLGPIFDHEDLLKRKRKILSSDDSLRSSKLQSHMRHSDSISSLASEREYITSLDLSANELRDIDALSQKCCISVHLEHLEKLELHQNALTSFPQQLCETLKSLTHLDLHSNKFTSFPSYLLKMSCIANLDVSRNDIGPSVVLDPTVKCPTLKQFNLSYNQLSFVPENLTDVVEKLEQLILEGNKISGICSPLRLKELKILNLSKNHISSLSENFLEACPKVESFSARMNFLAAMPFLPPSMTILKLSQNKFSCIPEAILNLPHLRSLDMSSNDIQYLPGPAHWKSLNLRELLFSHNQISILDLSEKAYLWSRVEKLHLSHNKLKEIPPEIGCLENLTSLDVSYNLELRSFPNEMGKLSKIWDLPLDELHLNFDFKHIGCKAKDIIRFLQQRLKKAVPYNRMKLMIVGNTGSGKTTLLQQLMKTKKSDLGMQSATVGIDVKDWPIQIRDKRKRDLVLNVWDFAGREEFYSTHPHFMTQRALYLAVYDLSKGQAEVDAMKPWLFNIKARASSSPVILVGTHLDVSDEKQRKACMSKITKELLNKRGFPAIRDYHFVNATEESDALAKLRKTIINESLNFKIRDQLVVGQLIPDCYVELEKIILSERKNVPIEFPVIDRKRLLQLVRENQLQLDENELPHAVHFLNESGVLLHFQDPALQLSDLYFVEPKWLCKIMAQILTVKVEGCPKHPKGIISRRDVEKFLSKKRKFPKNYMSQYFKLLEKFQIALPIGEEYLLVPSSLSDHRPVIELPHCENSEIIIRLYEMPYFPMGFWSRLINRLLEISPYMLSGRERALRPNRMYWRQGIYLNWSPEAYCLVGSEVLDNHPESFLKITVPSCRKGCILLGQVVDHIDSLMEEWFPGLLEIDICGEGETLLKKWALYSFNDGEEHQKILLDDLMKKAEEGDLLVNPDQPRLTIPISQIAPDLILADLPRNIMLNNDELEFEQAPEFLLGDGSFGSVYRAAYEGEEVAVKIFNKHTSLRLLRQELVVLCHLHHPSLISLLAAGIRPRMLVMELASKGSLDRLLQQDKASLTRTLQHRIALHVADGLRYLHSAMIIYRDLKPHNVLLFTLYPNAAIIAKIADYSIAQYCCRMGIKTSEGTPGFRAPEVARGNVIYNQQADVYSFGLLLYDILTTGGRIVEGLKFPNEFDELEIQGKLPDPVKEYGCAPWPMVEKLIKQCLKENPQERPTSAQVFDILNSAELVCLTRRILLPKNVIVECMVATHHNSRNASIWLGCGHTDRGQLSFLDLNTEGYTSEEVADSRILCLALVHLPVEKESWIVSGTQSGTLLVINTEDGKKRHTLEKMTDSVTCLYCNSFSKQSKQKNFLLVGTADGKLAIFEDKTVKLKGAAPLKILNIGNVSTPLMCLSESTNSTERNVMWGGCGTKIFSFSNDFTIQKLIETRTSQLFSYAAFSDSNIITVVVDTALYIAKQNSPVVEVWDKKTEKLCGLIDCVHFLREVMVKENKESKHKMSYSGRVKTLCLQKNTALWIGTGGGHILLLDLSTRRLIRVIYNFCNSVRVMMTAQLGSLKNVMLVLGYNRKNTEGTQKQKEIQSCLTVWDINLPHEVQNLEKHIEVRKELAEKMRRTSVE
Assay type: biochemical
Description: Activity of compounds against LRRK2 G2019S mutant kinase function was tested in a LANTHAScreen® assay as follows: Compounds were diluted in 100% DMSO to the desired test concentrations in white, low-volume 384-well plates (PerkinElmer ProxiPlate® PN: 6008280). TR-FRET kinase reactions (10 μL) were performed with 75 nM Fluorescein-ERM (LRRKtide, Invitrogen, PN:PV4901) substrate in a final assay buffer containing 100 μM ATP and 2 mM DTT diluted in commercially available Kinase Buffer S (Invitrogen PN: PV5213). The final solvent concentration in the assay was 1% DMSO. Reactions were initiated with the addition of 10 ng/well of LRRK2 02019S, GST-tagged protein (Invitrogen PN: PV4882). After incubation of the foil sealed reaction plates at room temperature with low speed mixing for 1 hour, the kinase reaction was stopped and the amount of substrate phosphorylation was detected by addition of 10 μL of 10 mM EDTA and 2 nM Tb-anti-pERM (pLRRKtide antibody, Invitrogen, PN: PV4898) antibody in TR-FRET dilution buffer (Invitrogen PN: PV3574). After a 30 minute incubation at room temperature with low speed mixing, foil seals were removed and measurements were obtained on a PerkinElmer EnVision with excitation 340 nm, emission 520 nm (channel 1): 495 nm (channel 2) settings. Generation of raw data and workup of data to derive the IC50 (potency) and maximal inhibition at concentrations tested were performed using Merck's Assay Data Analyzer (ADA) software.
In the case of `CC1(C)CC(=O)c2c(SC3CCCC3)sc(-c3ccn(C(=O)NC4CCN(C(=O)C(F)(F)F)CC4)n3)c2C1` [Example 65, 3-[3-(Cyclopentylsulfanyl)-6,6-dimethyl-4-oxo-4,5,6,7-tetrahydro-2-benzothiophen-1-yl]-N-[1-(trifluoroacetyl)piperidin-4-yl]-1H-pyrazole-1-carboxamide], the IC50 is reported as 330 nM.
For `COc1ccccc1NC(=O)n1ccc(-c2sc(SC3CCCC3)c3c2CC(C)(C)CC3=O)n1` [Example 66, 3-[3-(Cyclopentylsulfanyl)-6,6-dimethyl-4-oxo-4,5,6,7-tetrahydro-2-benzothiophen-1-yl]-N-(2-methoxyphenyl)-1H-pyrazole-1-carboxamide], the IC50 was 110 nM.
`CC1(C)CC(=O)c2c(SC3CCCC3)sc(-c3ccn(C(=O)Nc4cccc(Cl)c4)n3)c2C1` [Example 67, N-(3-Chlorophenyl)-3-[3-(cyclopentylsulfanyl)-6,6-dimethyl-4-oxo-4,5,6,7-tetrahydro-2-benzothiophen-1-yl]-1H-pyrazole-1-carboxamide] showed an IC50 of 330 nM.
For `CC1(C)CC(=O)c2c(SC3CCCC3)sc(-c3ccn(C(=O)Nc4cccc(C#N)c4)n3)c2C1` [Example 68, N-(3-Cyanophenyl)-3-[3-(cyclopentylsulfanyl)-6,6-dimethyl-4-oxo-4,5,6,7-tetrahydro-2-benzothiophen-1-yl]-1H-pyrazole-1-carboxamide], the IC50 was 130 nM.
In the case of `CC1(C)CC(=O)c2c(SC3CCCC3)sc(-c3ccn(C(=O)NCCc4ccccc4)n3)c2C1` [Example 69, 3-[3-(Cyclopentylsulfanyl)-6,6-dimethyl-4-oxo-4,5,6,7-tetrahydro-2-benzothiophen-1-yl]-N-(2-phenylethyl)-1H-pyrazole-1-carboxamide], the IC50 is reported as 4200 nM.
`CC1(C)CC(=O)c2c(SC3CCCC3)sc(-c3ccn(C(=O)NC(C)(C)C)n3)c2C1` [Example 70, N-tert-Butyl-3-[3-(cyclopentylsulfanyl)-6,6-dimethyl-4-oxo-4,5,6,7-tetrahydro-2-benzothiophen-1-yl]-1H-pyrazole-1-carboxamide] showed an IC50 of 1300 nM.
In the case of `CCC(C)NC(=O)n1ccc(-c2sc(SC3CCCC3)c3c2CC(C)(C)CC3=O)n1` (stereo not shown) [Example 71, N-(Butan-2-yl)-3-[3-(cyclopentylsulfanyl)-6,6-dimethyl-4-oxo-4,5,6,7-tetrahydro-2-benzothiophen-1-yl]-1H-pyrazole-1-carboxamide], the IC50 is reported as 1700 nM.
`CNC(=O)n1ccc(-c2sc(SC3CCCC3)c3c2CC(C)(C)CC3=O)n1` [Example 72, 3-[3-(Cyclopentylsulfanyl)-6,6-dimethyl-4-oxo-4,5,6,7-tetrahydro-2-benzothiophen-1-yl]-N-methyl-1H-pyrazole-1-carboxamide] gave an IC50 of 1700 nM.
`CC1(C)CC(=O)c2c(NC3CCCC3)sc(-c3ccn(C(=O)Nc4ccc(Cl)cc4)n3)c2C1` [Example 73, N-(4-Chlorophenyl)-3-[3-(cyclopentylamino)-6,6-dimethyl-4-oxo-4,5,6,7-tetrahydro-2-benzothiophen-1-yl]-1H-pyrazole-1-carboxamide] showed an IC50 of 280 nM.
`CC1(C)CC(=O)c2c(NC3CCCC3)sc(-c3ccn(C(=O)Nc4ccc(C#N)cc4)n3)c2C1` [Example 74, N-(4-Cyanophenyl)-3-[3-(cyclopentylamino)-6,6-dimethyl-4-oxo-4,5,6,7-tetrahydro-2-benzothiophen-1-yl]-1H-pyrazole-1-carboxamide] showed an IC50 of 190 nM.
`CC1(C)CC(=O)c2c(NC3CCCC3)sc(-c3ccn(C(=O)Nc4ccncc4)n3)c2C1` [Example 75, 3-[3-(Cyclopentylamino)-6,6-dimethyl-4-oxo-4,5,6,7-tetrahydro-2-benzothiophen-1-yl]-N-(pyridin-4-yl)-1H-pyrazole-1-carboxamide] was tested, and the IC50 was 720 nM.
`CCCC(=O)n1ccc(-c2sc(SC3CCCC3)c3c2CC(C)(C)CC3=O)n1` [Example 76, 1-(1-Butanoyl-1H-pyrazol-3-yl)-3-(cyclopentylsulfanyl)-6,6-dimethyl-6,7-dihydro-2-benzothiophen-4(5H)-one] showed an IC50 of 980 nM.
Work on `CC1(C)CC(=O)c2c(SC3CCCC3)sc(-c3ccn(C(=O)c4ccc(C#N)cc4)n3)c2C1` [Example 77, 4-({3-[3-(Cyclopentylsulfanyl)-6,6-dimethyl-4-oxo-4,5,6,7-tetrahydro-2-benzothiophen-1-yl]-1H-pyrazol-1-yl}carbonyl)benzonitrile] yielded an IC50 of 260 nM.
Compound `CC(C)C(=O)n1ccc(-c2sc(SC3CCCC3)c3c2CC(C)(C)CC3=O)n1` [Example 78, 3-(Cyclopentylsulfanyl)-6,6-dimethyl-1-[1-(2-methylpropanoyl)-1H-pyrazol-3-yl]-6,7-dihydro-2-benzothiophen-4(5H)-one] has an IC50 of 1500 nM.
With `CC1(C)CC(=O)c2c(SC3CCCC3)sc(-c3ccn(C(=O)Cc4ccc(Cl)cc4)n3)c2C1` [Example 79, 1-{1-[(4-Chlorophenyl)acetyl]-1H-pyrazol-3-yl}-3-(cyclopentylsulfanyl)-6,6-dimethyl-6,7-dihydro-2-benzothiophen-4(5H)-one] the IC50 was 600 nM.
In the case of `CC1(C)CC(=O)c2c(SC3CCCC3)sc(-c3ccn(C(=O)c4ccc(Cl)nc4)n3)c2C1` [Example 80, 1-{1-[(6-Chloropyridin-3-yl)carbonyl]-1H-pyrazol-3-yl}-3-(cyclopentylsulfanyl)-6,6-dimethyl-6,7-dihydro-2-benzothiophen-4(5H)-one], the IC50 is reported as 570 nM.
For `CC1(C)CC(=O)c2c(SC3CCCC3)sc(-c3ccn(C(=O)c4ccc(F)cc4)n3)c2C1` [Example 81, 3-(Cyclopentylsulfanyl)-1-{1-[(4-fluorophenyl)carbonyl]-1H-pyrazol-3-yl}-6,6-dimethyl-6,7-dihydro-2-benzothiophen-4(5H)-one], the IC50 was 970 nM.
For `COc1ccc(C(=O)n2ccc(-c3sc(SC4CCCC4)c4c3CC(C)(C)CC4=O)n2)cc1` [Example 82, 3-(Cyclopentylsulfanyl)-1-{1-[(4-methoxyphenyl)carbonyl]-1H-pyrazol-3-yl}-6,6-dimethyl-6,7-dihydro-2-benzothiophen-4(5H)-one], the IC50 was 3400 nM.
Work on `CC1(C)CC(=O)c2c(SC3CCCC3)sc(-c3ccn(C(=O)C4CCCCC4)n3)c2C1` [Example 83, 1-[1-(Cyclohexylcarbonyl)-1H-pyrazol-3-yl]-3-(cyclopentylsulfanyl)-6,6-dimethyl-6,7-dihydro-2-benzothiophen-4(5H)-one] yielded an IC50 of 4000 nM.
`CC1(C)CC(=O)c2c(SC3CCCC3)sc(-c3ccn(C(=O)c4ccc(F)c(F)c4)n3)c2C1` [Example 84, 3-(Cyclopentylsulfanyl)-1-{1-[(3,4-difluorophenyl)carbonyl]-1H-pyrazol-3-yl}-6,6-dimethyl-6,7-dihydro-2-benzothiophen-4(5H)-one] was tested, and the IC50 was 400 nM.
With `CSc1sc(-c2ccn(C(=O)OC(C)(C)C)n2)c2c1C(=O)CCC2` [Example 85, tert-Butyl 3-[3-(methylsulfanyl)-4-oxo-4,5,6,7-tetrahydro-2-benzothiophen-1-yl]-1H-pyrazole-1-carboxylate] the IC50 was 1100 nM.
`O=C1CCCc2c(-c3ccn(C(=O)Nc4ccc(Cl)cc4)n3)sc(SC3CCCC3)c21` [Example 86, N-(4-chlorophenyl)-3-[3-(cyclopentylsulfanyl)-4-oxo-4,5,6,7-tetrahydro-2-benzothiophen-1-yl]-1H-pyrazole-1-carboxamide] was tested, and the IC50 was 66 nM.
`N#Cc1ccc(NC(=O)n2ccc(-c3sc(NC4CCCC4)c4c3CCCC4=O)n2)cc1` [Example 87, N-(4-cyanophenyl)-3-[3-(cyclopentylamino)-4-oxo-4,5,6,7-tetrahydro-2-benzothiophen-1-yl]-1H-pyrazole-1-carboxamide] showed an IC50 of 330 nM.
In the case of `CSc1sc(-c2cc(C)[nH]n2)c2c1C(=O)CC(C)(C)C2` [Example 88, 6,6-Dimethyl-1-(5-methyl-1H-pyrazol-3-yl)-3-(methylsulfanyl)-6,7-dihydro-2-benzothiophen-4(5H)-one], the IC50 is reported as 1400 nM.
Compound `CSc1sc(-c2cc(C3CC3)[nH]n2)c2c1C(=O)CC(C)(C)C2` [Example 89, 1-(5-Cyclopropyl-1H-pyrazol-3-yl)-6,6-dimethyl-3-(methylsulfanyl)-6,7-dihydro-2-benzothiophen-4(5H)-one] has an IC50 of 470 nM.
Compound `CCc1cc(-c2sc(SC)c3c2CC(C)(C)CC3=O)n[nH]1` [Example 90, 1-(5-Ethyl-1H-pyrazol-3-yl)-6,6-dimethyl-3-(methylsulfanyl)-6,7-dihydro-2-benzothiophen-4(5H)-one] has an IC50 of 450 nM.
In the case of `CSc1sc(-c2cc[nH]n2)c2c1C(=O)C(C)CC2` (stereo not shown) [Example 91, 5-Methyl-3-(methylsulfanyl)-1-(1H-pyrazol-3-yl)-6,7-dihydro-2-benzothiophen-4(5H)-one], the IC50 is reported as 150 nM.
With `CCCC1CCc2c(-c3cc[nH]n3)sc(SC)c2C1=O` (stereo not shown) [Example 92, 3-(Methylsulfanyl)-5-propyl-1-(1H-pyrazol-3-yl)-6,7-dihydro-2-benzothiophen-4(5H)-one] the IC50 was 310 nM.
